Activity calls are given as the source filed them. The calls are words filed in the database; no cut-off is given here.
Experiments:
[1] = organism: Homo sapiens; test: Inhibition of insulin fibril formation (unknown origin) assessed as turbidity at 1:10 insulin to compound ratio at pH2 up to 12 hrs by UV/vis spectrometry
[2] = organism: Homo sapiens; test: Inhibition of insulin fibril formation (unknown origin) assessed as secondary structural changes at 1:5 insulin to compound ratio at pH2 up to 12 hrs by Far-UV CD spectra
[3] = organism: Homo sapiens; test: Inhibition of insulin fibril formation (unknown origin) assessed as turbidity at 1:20 insulin to compound ratio at pH2 up to 12 hrs by atomic force microscopy
[4] = organism: Homo sapiens; test: Inhibition of insulin fibril formation (unknown origin) assessed as decrease in ThT fluorescence at 1:50 insulin to compound ratio at pH2 up to 12 hrs by ThT binding assay
[5] = organism: Homo sapiens; test: Inhibition of insulin fibril formation (unknown origin) assessed as secondary structural changes at 1:5 insulin to compound ratio at pH2 up to 12 hrs by FT-IR technique
[6] = organism: Homo sapiens; test: Inhibition of insulin fibril formation (unknown origin) assessed as turbidity at pH2 up to 12 hrs by UV/vis spectrometry
[7] = organism: Homo sapiens; test: Inhibition of insulin fibril formation (unknown origin) assessed as decrease in ThT fluorescence at 1:5 insulin to compound ratio at pH2 up to 12 hrs by ThT binding assay
[8] = organism: Homo sapiens; test: Inhibition of insulin fibril formation (unknown origin) assessed as turbidity at 1:50 insulin to compound ratio at pH2 up to 12 hrs by UV/vis spectrometry; details: concentration not given here
[9] = organism: Homo sapiens; test: Inhibition of insulin fibril formation (unknown origin) assessed as turbidity at 1:5 insulin to compound ratio at pH2 up to 12 hrs by UV/vis spectrometry; details: concentration not given here

O=C(O)c1cc(O)c(O)c(O)c1
inhibition [1]: Active | inhibition [2]: Active | inhibition [3]: Active | inhibition [4]: Active | inhibition [5]: Active | inhibition [6]: Dose-dependent effect | inhibition [7]: Active | inhibition [8]: 90% | inhibition [9]: > 50%
